Reference: US5470852A, “Tetrahydroprotoberberine quaternary ammonium compounds useful in for treating arrhythmia” (priority 1991, dated 1995)
Like-named read-outs stand apart in the source and are kept apart here.

Legend:
[1] = test system: various experimental arrhythmic models; assay: Overall antiarrhythmic, anti-VF and anti-ischemic activity (summary); assay type: in vivo
[2] = test system: normal papillary muscles in rats; assay: Action potential in normal papillary muscles in rats; assay type: cell-based, rat; conditions: n=6, I13 concentration not given
From the text: (§1) Effect of I13 (μ mol/L) on estimates of action potential induced in
(§2) normal and pathological papillary muscles in rats.

anaesthetized rats = assay: animal or person; conditions: Rattus norvegicus
rabbits [3] = assay: APD 24 hours after AMI in rabbits; assay type: in vivo, rabbit
Experimental: 24 hours after AMI, APD is markedly shortened.

[4] = test system: pathological papillary muscles in rats (cardiomyopathy); assay: Action potential in papillary muscles of rats with cardiomyopathy (L-thyrotoxin); assay type: cell-based, rat
From the text: as §1, §2

rabbits [5] = assay: Electrically-induced ventricular fibrillation threshold (VFT) in rabbits; assay type: in vivo, rabbit; conditions: for VFT Before: baseline
[6] = cardiomyopathy, n=5, I13 concentration not given

COc1ccc2c(c1OC)C[N+]1(Cc3ccc(Cl)cc3)CCc3cc4c(cc3C1C2)OCO4 (stereo not drawn) [Compound I13, 7-(4-chlorobenzyl)-5,8,13,13a-tetrahydroberberine chloride]
inhibition of ventricular fibrillation and myocardial ischemia ([1]; in vivo): inhibits ventricular fibrillation and myocardial ischemia | protection against arrhythmia, VF and myocardial ischemic injury ([1]; in vivo): advanced protection against arrhythmia, ventricular fibrillation (VF) and myocardial ischemic injury | antiarrhythmic effects ([1]; various experimental arrhythmic models): marked antiarrhythmic effects | APA [2]: 108 ± 9 mv | APD20 [2]: 5 ± 1 ms | APD50 [2]: 15 ± 4 ms | APD90 [2]: 44 ± 9 ms | ERP [2]: 43 ± 8 ms | RP [2]: 83 ± 4 mv | Vmax [2]: 200 ± 50 v/s | ED50 (anaesthetized rats; iv): 0.16 mg/kg | ED50 (anaesthetized rats; iv, read-out: ED50 against VF): 0.16 mg/kg | ED50 (anaesthetized rats; iv, read-out: ED50 against arrhythmias): 0.22 mg/kg | ED50 (anaesthetized rats; po): 16.5 mg/kg | ED50 (anaesthetized rats; po, read-out: ED50 against VF): 20 mg/kg | ED50 (anaesthetized rats; po, read-out: ED50 against arrhythmias): 16.5 mg/kg | effect on APD shortening after AMI (rabbits [3]): could be cancelled | Vmax in cardiomyopathy model ([4]; L-thyrotoxin, rats): completely inhibited | APA [4, 6]: 104 ± 7 mv | APD20 [4, 6]: 12 ± 3 ms | APD50 [4, 6]: 32 ± 4 ms | APD90 [4, 6]: 65 ± 5 ms | ERP [4, 6]: 66 ± 6 ms | RP [4, 6]: 81 ± 5 mv | Vmax [4, 6]: 160 ± 50 v/s | VFT Before (rabbits [5]; intra-duodenal 4.5 mg/kg group): 5.8 ± 0.3 volt | VFT Before (rabbits [5]; intra-duodenal 15 mg/kg group): 5.2 ± 0.9 volt | VFT Before (rabbits [5]; iv 1.5 mg/kg group): 5.2 ± 0.6 volt | potency in elevating VFT relative to lidocaine (rabbits [5]; i.v.): ten times more potent than lidocaine | AUC (area under curve, VFT effect) (rabbits [5]; id 4.5 mg/kg): 48.1 | AUC (area under curve, VFT effect) (rabbits [5]; id 15 mg/kg): 83.7 | VFT After (rabbits [5]; intra-duodenal 4.5 mg/kg): 8.9 ± 0.4 volt | ΔVFT (rabbits [5]; intra-duodenal 4.5 mg/kg): 3.1 ± 0.4 volt | ΔVFT % (rabbits [5]; intra-duodenal 4.5 mg/kg): 53.0 ± 7.6% | VFT After (rabbits [5]; intra-duodenal 15 mg/kg): 9.9 ± 2.2 volt | ΔVFT (rabbits [5]; intra-duodenal 15 mg/kg): 4.8 ± 1.5 volt | ΔVFT % (rabbits [5]; intra-duodenal 15 mg/kg): 92.1 ± 19.5% | AUC (area under curve, VFT effect) (rabbits [5]; iv 1.5 mg/kg): 11.1 | VFT After (rabbits [5]; iv 1.5 mg/kg): 8.1 ± 1.1 volt | ΔVFT (rabbits [5]; iv 1.5 mg/kg): 2.8 ± 0.8 volt | ΔVFT % (rabbits [5]; iv 1.5 mg/kg): 54.4 ± 16.9% | AUC (area under curve, VFT effect) (rabbits [5]; iv 4.5 mg/kg): 14.4 | VFT After (rabbits [5]; iv 4.5 mg/kg): 8.8 ± 1.1 volt | ΔVFT (rabbits [5]; iv 4.5 mg/kg): 3.6 ± 0.6 volt | ΔVFT % (rabbits [5]; iv 4.5 mg/kg): 72.2 ± 9.7%
